The numbers were not newly measured in paper PMC9182199, “Borylated 2,3,4,5-Tetrachlorophthalimide and Their 2,3,4,5-Tetrachlorobenzamide Analogues: Synthesis, Their Glycosidase Inhibition and Anticancer Properties in View to Boron Neutron Capture Therapy” (Molecules, 2022), which cites them from elsewhere.

Data set [1] has as its target maltase. Also noted: method as in PMID 18254235. The settings on record: cited from earlier work.
Data set [2] relates to sucrase. The arrangement: method as in PMID 18254235. The settings on record: cited from earlier work.
Data set [3] addresses T1, yeast α-glucosidase (Saccharomyces cerevisiae, UniProt P53341).
T1 construct: purchased Sigma
The arrangement: method as in PMID 18254235. The settings on record: cited from earlier work.

Data set [4] has as its system human. The settings on record: oral; cited from earlier work.
In data set [5] the test system is human. The settings on record: 5 min; cited from earlier work.
For data set [6] the following is noted: cited from earlier work.
Data set [7] concerns rat. Also noted: method as in earlier work. The settings on record: oral; cited from earlier work.

T1 sequence (P53341 whole entry): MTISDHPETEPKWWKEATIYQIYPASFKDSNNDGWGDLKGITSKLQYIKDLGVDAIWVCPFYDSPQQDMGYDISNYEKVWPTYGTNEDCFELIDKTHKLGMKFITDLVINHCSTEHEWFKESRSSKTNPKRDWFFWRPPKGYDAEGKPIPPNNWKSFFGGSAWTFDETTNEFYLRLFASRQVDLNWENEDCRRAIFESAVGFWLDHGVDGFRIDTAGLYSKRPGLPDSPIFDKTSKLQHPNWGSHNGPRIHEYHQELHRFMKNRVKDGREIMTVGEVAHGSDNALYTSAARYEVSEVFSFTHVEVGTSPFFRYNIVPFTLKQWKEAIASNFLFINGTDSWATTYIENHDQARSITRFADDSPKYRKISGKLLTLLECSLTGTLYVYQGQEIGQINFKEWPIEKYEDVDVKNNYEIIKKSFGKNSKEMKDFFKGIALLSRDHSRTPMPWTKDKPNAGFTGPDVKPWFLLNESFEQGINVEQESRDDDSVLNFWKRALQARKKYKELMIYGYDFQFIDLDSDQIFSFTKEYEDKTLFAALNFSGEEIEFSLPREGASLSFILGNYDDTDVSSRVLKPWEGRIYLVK

On to `O=C1c2ccccc2C(=O)N1c1ccc([N+](=O)[O-])cc1[N+](=O)[O-]` [N-(2,4-dinitrophenyl)phthalimide], for which the IC50 (usually the point on the concentration scale where inhibition reaches its midpoint) was 51 µM in data set [1] and 158 µM in data set [3]. In addition, the inhibition of sucrase entry in data set [2] is listed as “no inhibition”.

Regarding `c1ccccc1` [benzene], the “LD50 (lethal dose)” value in data set [4] is listed as 125 mg/kg. Also, in data set [5], the “LCLO (lethal concentration)” value was 20,000 ppm. Besides, in data set [6], the “Immediately Dangerous to Life and Health concentration” value is on record as 500 ppm; the “Recommended Exposure Limit” value is listed as 0.1 ppm.

Take `OB(O)c1ccccc1` [phenylboronic acid]: the median lethal dose (LD50) (usually the dose at which mortality reaches 50%) in data set [7] is recorded as 740 mg/kg.
